Experimental data from US5189169A (priority 1991, dated 1993).
Values joined by “and” are separate entries in the source; they are usually repeats but may differ in a detail not shown here. Equal values may be shown once.

Tests used:
[1] = system: four grassy weeds: wild oat, watergrass, green foxtail and crabgrass; test: Pre-emergence herbicidal activity, grassy weeds (Table III); format: in vivo; conditions: 2.24 kg/ha, 2-3 weeks after treatment
Protocol: (§1) The herbicidal effect was observed by comparing the extent of weed control in test flats treated with the compounds against that occurring in similar non-treated control flats. All were applied at 3.57 lb/A (4 kg/ha) to pre-emergence and post-emergence screening flats. An 80 gal/A (748.3 1/ha) spray volume was utilized. Post-emergence flats were seeded 12 days prior to treatment. Pre-emergence flats were seeded one day prior to treatment. Overhead watering of pre-emergence flats and soil surface watering of post-emergence flats, so as to avoid wetting the foliage, were carried out for the duration of the test.
(§2) Weed seeds were planted in a flat at a seed depth of 0.5 inch (1.3 cm). Soil for flats was prepared using loam soil fortified with 17-17-17 fertilizer (N-P2 O5 -K2 O on a weight basis) and Captan 80W fungicide. The test weeds were as follows:
(§3) The spray solutions were prepared by dissolving 240 mg of test compound in 20 ml of acetone containing 1% polyoxyethylene sorbitan monolaurate emulsifier, then adding 20 ml of water to the resulting solution. The spray solutions were applied using a linear spray table. Pre-emergence flats are raised to the level of the post-emergence foliage canopy by setting the flats on a wooden block.
(§4) The degree of weed control was visually assessed and recorded as percentage control compared to the growth of the same species in an untreated check flat of the same age. The rating scale ranges from 0 to 100%, where 0 equals no effect with plant growth equal to the untreated control, and 100 equals complete kill.
(§5) Compounds 68 to 145 in Table I were tested generally similarly to Compounds No. 1 to 67 with the following differences: The rate of application was 2 lb/acre (2.24 kg/ha), no 6-day evaluations were made, and the weeds were:
(§6) Four grassy weeds: wild oat, watergrass, green foxtail and crabgrass (Digitaria sanguinalis);
(§7) Ratings were taken 2-3 weeks after treatment.

[2] = system: three broadleaf weeds: wild mustard, redroot pigweed and curly dock; test: Pre-emergence herbicidal activity, broadleaf weeds (Table III); format: in vivo, Brassica kaber, Amaranthus retroflexus, Rumex crispus; conditions: 2.24 kg/ha, 2-3 weeks after treatment
Protocol: as §1, §2, §3, §4, §5
(§8) Three broadleaf weeds: wild mustard, redroot pigweed (Amaranthus retroflexus) and curly dock (Rumex crispus).
as §7

[3] = system: four grassy weeds: wild oat, watergrass, green foxtail and crabgrass; test: Post-emergence herbicidal activity, grassy weeds (Table III); format: in vivo; conditions: 2.24 kg/ha, 2-3 weeks after treatment
Protocol: as §1, §2, §3, §4, §5, §6, §7

[4] = system: three broadleaf weeds: wild mustard, redroot pigweed and curly dock; test: Post-emergence herbicidal activity, broadleaf weeds (Table III); format: in vivo, Brassica kaber, Amaranthus retroflexus, Rumex crispus; conditions: 2.24 kg/ha, 2-3 weeks after treatment
Protocol: as §1, §2, §3, §4, §5, §8, §7

[5] = system: three broadleaf weeds (morning glory, mustard, velvetleaf); design: species or system Ipomoea purpurea, Brassica kaber, Abutilon theophrasti; conditions: in vivo
yellow nutsedge [6] = system: yellow nutsedge; design: species or system Cyperus esculentus; conditions: in vivo
yellow nutsedge [7] = system: yellow nutsedge; design: species or system Cyperus esculentus; conditions: in vivo; remark: listed apart in the source
[8] = system: three broadleaf weeds (morning glory, mustard, velvetleaf); design: species or system Ipomoea purpurea, Brassica kaber, Abutilon theophrasti; conditions: in vivo; remark: listed apart in the source
[9] = system: three grassy weeds (wild oat, watergrass, foxtail); design: species or system Avena fatua, Echinochloa crusgalli, Setaria viridis; conditions: in vivo

Compound | % Control, Pre-Emergence, GR Avg. [1] | % Control, Pre-Emergence, BL Avg. [2] | % Control, Post-Emergence, GR Avg. [3] | % Control, Post-Emergence, BL Avg. [4] | % Control, Pre-emergence, BL avg. [5] | % Control, Post-emergence, NS (yellow nutsedge [6]) | % Control, Pre-emergence, NS (yellow nutsedge [7]) | % Control, Post-emergence, BL avg. [8] | % Control, Pre-emergence, GR avg. [9]
CCCCCSP(=O)(N(CCC)CCC)N(CCCC)CCCC (centres unmarked) [Compound 130] | 0% | 16% | 59% | 97% | – | – | – | – | –
CCCN(CCC)P(=O)(SCc1ccccc1)N(CCC)CCC [Compound 95] | 5% | 13% | 55% | 80% | – | – | – | – | –
CCCCSP(=O)(N(CCC)CCC)N(CCCC)CCCC (centres unmarked) [Compound 126] | 0% | 0% | 61% | 86% | – | – | – | – | –
CCCCSP(=O)(N(CCCC)CCCC)N(CCCC)CCCC [Compound 83] | 5% | 7% | 82% | 99% | – | – | – | – | –
CCCCN(CCCC)P(=O)(SC(C)CC)N(CC)CC (centres unmarked) [Compound 102] | 30% | 40% | 70% | 99% | – | – | – | – | –
CCCN(CCC)P(=O)(SC(C)CC)N(CCC)CCC (centres unmarked) [Compound 80] | 25% | 53% | 80% | 100% | – | – | – | – | –
CCCCN(CCCC)P(=O)(SCCC)N(C)C (centres unmarked) [Compound 108] | 15% | 13% | 76% | 98% | – | – | – | – | –
CCCCCSP(=O)(N(CC)CCCC)N(CCC)CCC (centres unmarked) [Compound 133] | 0% | 10% | 59% | 97% | – | – | – | – | –
CCCCN(CC)P(=O)(SCCC)N(CCC)CCC (centres unmarked) [Compound 89] | 0% | 7% | 90% | 100% | – | – | – | – | –
CCCN(CCC)P(=O)(Sc1ccccc1)N(CCC)CCC [Compound 78] | 0% | 0% | 50% | 98% | – | – | – | – | –
CCCCN(CCCC)P(=O)(SCC)N(CCC)CCC (centres unmarked) [Compound 123] | 0% | 0% | 65% | 89% | – | – | – | – | –
C=CCSP(=O)(N(CCC)CCC)N(CCC)CCC [Compound 99] | 22% | 37% | 58% | 99% | – | – | – | – | –
CCCCN(CCCC)P(=O)(SCC)N(CCCC)CCCC [Compound 82] | 0% | 0% | 75% | 99% | – | – | – | – | –
CCCCN(CCCC)P(=O)(SC(C)CC)N(C)C (centres unmarked) [Compound 111] | 10% | 10% | 72% | 99% | – | – | – | – | –
C=CCN(CC=C)P(=O)(SCCC)N(CCC)CCC (centres unmarked) [Compound 76] | 0% | 0% | 61% | 99% | – | – | – | – | –
CCCCN(CC)P(=O)(SC(C)C)N(CCC)CCC (centres unmarked) [Compound 91] | 0% | 3% | 84% | 99% | – | – | – | – | –
CCCSP(=O)(N(CCC)CCC)N(CC)c1ccc(F)cc1 (centres unmarked) [Compound 54] | – | – | – | – | 8% | 0% | 0% | 100% | 0%
CCCCN(CCCC)P(=O)(SCCC)N(C)c1ccc(Cl)c(Cl)c1 (centres unmarked) [Compound 21] | – | – | – | – | 0% | 0% | 0% | 20% and 40% | 0%
CCCCN(CCC(C)C)P(=O)(SCCC)N(CCCC)CCC(C)C [Compound 52] | – | – | – | – | 0% | 0% | 0% | 90% and 86% | 0%
CCCSP(=O)(N(CCC)CCC)N(C)c1ccc(F)cc1C (centres unmarked) [Compound 64] | – | – | – | – | 0% | 0% and 5% | 0% | 85% and 93% | 3%
CCCCN(c1ccc(F)cc1)P(=O)(SCCC)N(CCC)CCC (centres unmarked) [Compound 55] | – | – | – | – | 3% | 0% | 5% | 90% and 86% | 13%
CCCN(CCC)P(=O)(Sc1ccccc1Br)N(CCC)CCC [Compound 8] | – | – | – | – | 0% | 0% | 0% | 50% and 55% | 0%
CCCSP(=O)(N(CCC)CCC)N(C)c1ccc(OC(F)(F)F)c(Cl)c1 (centres unmarked) [Compound 66] | – | – | – | – | 10% | 0% and 5% | 0% | 90% and 98% | 0%
CCCSP(=O)(N(CCC)CCC)N(C)c1ccc(F)c(F)c1F (centres unmarked) [Compound 47] | – | – | – | – | 0% | 0% | 0% | 100% and 98% | 0%
